Data from ChEMBL document CHEMBL1201862, “PubChem BioAssay data set” (2004).
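96-well plates; 48 h exposure; 5 concentrations. Endpoints by linear interpolation between flanking doses. Not reached: highest tested concentration assigned. At the GI50, growth is halved.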 The source made the active and inactive calls. Cut-off read from the data, not from the text of the source: active = GI50 up to about 1.1 µM and inactive = higher.

How the values were obtained:
Assay in all cases: inhibition of tumour cell growth, NCI panel, 48 h
[1] = tested on: SR
[2] = tested on: HCC 2998
[3] = tested on: A498
[4] = tested on: MOLT-4
[5] = tested on: SN12C
[6] = tested on: NCI-H522
[7] = tested on: COLO 205
[8] = tested on: DU-145
[9] = tested on: SF-295
[10] = tested on: MCF7
[11] = tested on: LOX IMVI
[12] = tested on: MDA-N
[13] = tested on: HOP-62
[14] = tested on: Malme-3M
[15] = tested on: HCT-15
[16] = tested on: HOP-92
[17] = tested on: HCT-116
[18] = tested on: OVCAR-5
[19] = tested on: OVCAR-3
[20] = tested on: BT-549

Row | SMILES | GI50 [1] | GI50 [2] | GI50 [3] | GI50 [4] | GI50 [5] | GI50 [6] | GI50 [7] | GI50 [8] | GI50 [9] | GI50 [10] | GI50 [11] | GI50 [12] | GI50 [13] | GI50 [14] | GI50 [15] [µM] | GI50 [16] | GI50 [17] | GI50 [18] | GI50 [19] | GI50 [20]
1 | Clc1nncc2sc(-c3ccccc3)nc12 | 9.82 µM (inactive) | 8.45 µM (inactive) | 40.6 µM (inactive) | 28.8 µM (inactive) | 21 µM (inactive) | 8.73 µM (inactive) | 29.2 µM (inactive) | 6.62 µM (inactive) | 27.1 µM (inactive) | 25.5 µM (inactive) | 14.7 µM (inactive) | 21.6 µM (inactive) | 17.8 µM (inactive) | 22.1 µM (inactive) | 7 | 5.06 µM (inactive) | 16.9 µM (inactive) | 83.2 µM (inactive) | 6.41 µM (inactive) | 13.9 µM (inactive)
2 | COc1ccc(CNC2=Nc3ccncc3S(=O)(=O)N2c2ccccc2)cc1 | 23.3 µM (inactive) | 3.77 µM (inactive) | 35.9 µM (inactive) | 19 µM (inactive) | 80.9 µM (inactive) | 34.1 µM (inactive) | > 100 µM (inactive) | 45.7 µM (inactive) | 65 µM (inactive) | 38.5 µM (inactive) | 46.9 µM (inactive) | 29.9 µM (inactive) | > 100 µM (inactive) | 49.9 µM (inactive) | 34.3 | 29.9 µM (inactive) | 36.5 µM (inactive) | > 100 µM (inactive) | 82.8 µM (inactive) | 23.2 µM (inactive)
3 | O=NN(Cc1ccc(Cl)cc1)C(C(=O)O)c1ccccc1 (stereo not given) | > 100 µM (inactive) | 43.9 µM (inactive) | > 100 µM (inactive) | > 100 µM (inactive) | > 100 µM (inactive) | > 100 µM (inactive) | > 100 µM (inactive) | > 100 µM (inactive) | > 100 µM (inactive) | > 100 µM (inactive) | > 100 µM (inactive) | > 100 µM (inactive) | > 100 µM (inactive) | > 100 µM (inactive) | > 100 | > 100 µM (inactive) | > 100 µM (inactive) | > 100 µM (inactive) | > 100 µM (inactive) | > 100 µM (inactive)
4 | CCCCCC(O)(CCCCC)CCCCCCCCC1=C(O)C(=O)c2ccccc2C1=O | 3.44 µM (inactive) | 16.6 µM (inactive) | 13.3 µM (inactive) | 3.33 µM (inactive) | 9.04 µM (inactive) | 12.2 µM (inactive) | 20.7 µM (inactive) | 8.53 µM (inactive) | 7.91 µM (inactive) | 9.62 µM (inactive) | 4.97 µM (inactive) | 10.5 µM (inactive) | 11.6 µM (inactive) | 11.5 µM (inactive) | 4.18 | 14.6 µM (inactive) | 3.83 µM (inactive) | 20.5 µM (inactive) | 14.3 µM (inactive) | 14.7 µM (inactive)
5 | O=C(O)c1c2c(cc3c1CC1(Cc4cc5c(cc4C1=O)CCC5)C3)CCC2 (stereo not given) | 20.7 µM (inactive) | 51.9 µM (inactive) | > 100 µM (inactive) | 50.8 µM (inactive) | > 100 µM (inactive) | 76.4 µM (inactive) | 52.4 µM (inactive) | 98.2 µM (inactive) | > 100 µM (inactive) | 42.4 µM (inactive) | 57.1 µM (inactive) | > 100 µM (inactive) | > 100 µM (inactive) | > 100 µM (inactive) | 74.1 | > 100 µM (inactive) | 87.5 µM (inactive) | > 100 µM (inactive) | 56.4 µM (inactive) | 86.3 µM (inactive)
6 | O=C(/C=C/c1ccc(O)cc1)c1ccc(O)cc1 [4,4'-DIHYDROXYCHALCONE] | 9.71 µM (inactive) | 24 µM (inactive) | 31 µM (inactive) | 19.3 µM (inactive) | 31.2 µM (inactive) | 3.94 µM (inactive) | 30.4 µM (inactive) | 34.2 µM (inactive) | 31.8 µM (inactive) | 32.9 µM (inactive) | 11.4 µM (inactive) | 27.4 µM (inactive) | 21.8 µM (inactive) | 27.7 µM (inactive) | 20.3 | 31.6 µM (inactive) | 16.8 µM (inactive) | 33.3 µM (inactive) | 22 µM (inactive) | 32.6 µM (inactive)
7 | CCOC(=O)C(=CNc1ccc(NC2=NCC(C)S2)cc1)C(=O)OCC (stereo not given) | 22.3 µM (inactive) | 33.4 µM (inactive) | 28.8 µM (inactive) | 3.15 µM (inactive) | 41 µM (inactive) | 2.66 µM (inactive) | 35.6 µM (inactive) | 46.5 µM (inactive) | 29.6 µM (inactive) | 30.3 µM (inactive) | 30.1 µM (inactive) | 25.7 µM (inactive) | 50 µM (inactive) | 24.3 µM (inactive) | 15.2 | 30.4 µM (inactive) | 35.2 µM (inactive) | > 100 µM (inactive) | 18.2 µM (inactive) | 15.2 µM (inactive)
8 | C=C(CCC/C(C)=C/C=C/[C@H](C)CCCc1ccoc1)C[C@@H]1OC(=O)[C@H](C)[C@@H]1O | 11.8 µM (inactive) | 10.1 µM (inactive) | 8.53 µM (inactive) | 15.3 µM (inactive) | 8.79 µM (inactive) | 9.02 µM (inactive) | 12.6 µM (inactive) | 8.55 µM (inactive) | 8.83 µM (inactive) | 10.8 µM (inactive) | 13.6 µM (inactive) | 9.98 µM (inactive) | 8.63 µM (inactive) | 9.4 µM (inactive) | 11.4 | 8.95 µM (inactive) | 11.5 µM (inactive) | 11 µM (inactive) | 7.64 µM (inactive) | 8.69 µM (inactive)
9 | c1ccc(C2=NOC(c3ccccc3)N2C23CC4CC(CC(C4)C2)C3)cc1 (stereo not given) | 0.785 µM (active) | > 10 µM (inactive) | > 10 µM (inactive) | 9.53 µM (inactive) | > 10 µM (inactive) | > 10 µM (inactive) | > 10 µM (inactive) | > 10 µM (inactive) | > 10 µM (inactive) | 5.82 µM (inactive) | > 10 µM (inactive) | > 10 µM (inactive) | > 10 µM (inactive) | > 10 µM (inactive) | > 10 | > 10 µM (inactive) | > 10 µM (inactive) | > 10 µM (inactive) | > 10 µM (inactive) | > 10 µM (inactive)
10 | CC(C)NCC(O)c1cc(OCc2ccccc2)c(OCc2ccccc2)cc1NC(=O)CCC(=O)O (stereo not given) | 2.34 µM (inactive) | 2.49 µM (inactive) | 11 µM (inactive) | 3.64 µM (inactive) | 11.7 µM (inactive) | 3.52 µM (inactive) | 2.06 µM (inactive) | 13 µM (inactive) | 3.94 µM (inactive) | 5.69 µM (inactive) | 1.57 µM (inactive) | 2.21 µM (inactive) | 13.7 µM (inactive) | 15.2 µM (inactive) | 3.24 | 4.78 µM (inactive) | 5.22 µM (inactive) | 16.7 µM (inactive) | 13.6 µM (inactive) | 15.8 µM (inactive)
11 | Cc1nc(Cl)c(Cl)c(Cl)n1 | < 0.01 µM (active) | 1.42 µM (inactive) | 2.32 µM (inactive) | < 0.0142 µM (active) | 0.284 µM (active) | 1.79 µM (inactive) | 0.434 µM (active) | 2.81 µM (inactive) | 1.86 µM (inactive) | 0.575 µM (active) | 0.0596 µM (active) | 1.6 µM (inactive) | 0.451 µM (active) | 0.202 µM (active) | 0.558 | 0.238 µM (active) | 0.118 µM (active) | 1.32 µM (inactive) | 0.146 µM (active) | 0.199 µM (active)
12 | O=C(c1cc(Cl)cc(Cl)c1)N(Cc1cccnc1)C(=S)N(Cc1cccnc1)C(=O)c1cc(Cl)cc(Cl)c1 | 16.1 µM (inactive) | 19.3 µM (inactive) | 27.4 µM (inactive) | 38.9 µM (inactive) | 41.4 µM (inactive) | 23.8 µM (inactive) | 15.3 µM (inactive) | 41.8 µM (inactive) | 55.5 µM (inactive) | 5.69 µM (inactive) | 34.1 µM (inactive) | 31.3 µM (inactive) | 29.9 µM (inactive) | 55.8 µM (inactive) | 25.2 | 36.6 µM (inactive) | 31.1 µM (inactive) | 35.6 µM (inactive) | 21.7 µM (inactive) | 29.2 µM (inactive)
13 | Clc1ccc(-c2cc(-c3nc4ccccc4[nH]3)no2)cc1 | 21.4 µM (inactive) | 18.6 µM (inactive) | 18.9 µM (inactive) | 16.1 µM (inactive) | 18.6 µM (inactive) | 19.2 µM (inactive) | 20 µM (inactive) | 11.4 µM (inactive) | 17.3 µM (inactive) | 15 µM (inactive) | 19.5 µM (inactive) | 17.5 µM (inactive) | 19.5 µM (inactive) | 19.3 µM (inactive) | 19.6 | 33.7 µM (inactive) | 16.6 µM (inactive) | 18.7 µM (inactive) | 18.5 µM (inactive) | 21.6 µM (inactive)
14 | C/C(=N\Nc1nc2ccccc2o1)c1ncccn1 | < 0.02 µM (active) | 0.141 µM (active) | 0.332 µM (active) | < 0.01 µM (active) | < 0.0158 µM (active) | < 0.01 µM (active) | < 0.01 µM (active) | 0.0811 µM (active) | 0.0824 µM (active) | 0.0121 µM (active) | 0.0115 µM (active) | 0.3 µM (active) | 0.0908 µM (active) | < 0.01 µM (active) | < 0.0211 | 0.145 µM (active) | < 0.0175 µM (active) | < 0.0267 µM (active) | 0.0136 µM (active) | 0.643 µM (active)
